US20030203888A1, “Chromophores” (priority 2001, published 2003)

Key:
BSA = BSA (Bos taurus, UniProt P02769); test: 'Blank' bioconjugation: non-covalent binding of unreactive fluorophore to BSA (gel filtration, UV analysis); settings: after PD-10 gel filtration
Source text: (§1) Experiments have been undertaken to determine the level of non-covalent binding of fluorophore to the protein surface (BSA and avidin). ‘Blank’ bioconjugations using mixtures of the unreactive DPCH and DPBC derivatives 2,3-dihydroxy-5-(4-methoxyphenyl)-15-(4-acetomidophenyl)chlorin (higher Rf regioisomer) and 2,3,12,13-tetrahydroxy-5-(4-acetomidophenyl)-15-(4-methoxyphenyl) bacteriochlorin (higher Rf […] stereoisomer) with both BSA and avidin have been carried out and the resultant protein solutions have been purified by gel filtration (PD-10) as described for the reactive probes described earlier. […] For BSA or avidin, 1 unreactive DPCH binds to each protein molecule, whereas DPBC is less than 1 due probably to its increased polarity and non-amphiphilic nature.

avidin = avidin (Gallus gallus, UniProt P02701); test: 'Blank' bioconjugation: non-covalent binding of unreactive fluorophore to avidin (gel filtration, UV analysis); settings: after PD-10 gel filtration
Sequence of avidin (P02701 25-152, species assumed): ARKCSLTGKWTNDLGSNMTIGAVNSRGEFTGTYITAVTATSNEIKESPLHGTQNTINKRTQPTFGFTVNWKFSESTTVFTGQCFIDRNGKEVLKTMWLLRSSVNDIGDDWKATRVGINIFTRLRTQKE
Source text: as §1

[1] = Solubility in water of the chloride salts
Colo 320 cells [2] = test: FACS conjugate binding analysis; assay type: cell-based, human; settings: FITC detection, 3 repeats
Procedure: Wash flask of cells with phosphate buffered saline (PBS) pH 7.3. Treat with 5 mM EDTA in PBS for 10 min at 37C. Tap flask to dislodge cells, place in 50 mL polypropylene tube and pellet at 400 g 3 min. Resuspend in 10 mL PBS and count cells. Place 2×10^5 in FACS tube (Falcon 2054) and wash with 1 mL PBS by centrifugation (400 g 3 min) and resuspension by agitation
Block cells in 500 μL 2% Marvel milk powder in PBS, 1% BSA 30 min RT
Wash cells in 1 mL PBS/BSA/Azide centifuge and resuspend pellet (as above)
Add 10 μL appropriate antibody dilution. Incubate on ice 1 h
Add 50 μL Rabbit anti-mouse:FITC (Serotec, 1/100 dilution) and incubate on ice in the dark 1 h
Wash cells in 1 mL PBS/BSA/Azide centiflige (as above) and resuspend pellet in 400 μL PBS/BSA/Azide.
Run samples through FACS machine using CellQuest acquisition software to collect data.
FACS analyses were run in accordance with Methodology Description 5.

Colo 320 cells [3] = test: Standard photocytotoxicity test (MTT); assay type: cell-based, human; settings: 3.6J/cm2 filtered red light, MTT % cell survival
Procedure: Cells are grown to confluence or appropriate density then washed 2 times with PBS (phosphate buffered saline) to eliminate all trace of FBS (fretal bovine serum). Cell density is adjusted to 1.5×10^6 cells/ml in medium without FBS and these are then incubated for 1 hour in the dark (37 degrees C., 5% CO2) with a range of photosensitiser/conjugate concentrations. Post incubation, cells are washed further with medium (without FBS)to eliminate unbound photosensitiser, then resuspended and seeded in 96 wells plates (1×10^5 cells/well) in quadruplate. Plates are then either irradiated (3.6J/cm2 of filtered red light […]) or left in the dark as “dark toxicity controls” for the same period of time (14 minutes).Five microliters (5%/well) of FBS is added after the irradiation/dark period and the plates are returned to the incubator overnight. Twenty to 24 hours after treatment, 10 μl of MTT solution (Sigma Thiazolyl blue, 4.8×10^−4M in PBS)is added per well and the plates are returned to the incubator until color develops (between 1 and 4 hours). A solution of acid-alcohol (100 μl/well of 0.04N HCL in isopropanol) is the added and mixed thoroughly to dissolve the dark blue crystals. Plates are then read at 570 nm in a microplate reader and the % cell survival calculated against controls. […]

Sequence of BSA (P02769 25-607): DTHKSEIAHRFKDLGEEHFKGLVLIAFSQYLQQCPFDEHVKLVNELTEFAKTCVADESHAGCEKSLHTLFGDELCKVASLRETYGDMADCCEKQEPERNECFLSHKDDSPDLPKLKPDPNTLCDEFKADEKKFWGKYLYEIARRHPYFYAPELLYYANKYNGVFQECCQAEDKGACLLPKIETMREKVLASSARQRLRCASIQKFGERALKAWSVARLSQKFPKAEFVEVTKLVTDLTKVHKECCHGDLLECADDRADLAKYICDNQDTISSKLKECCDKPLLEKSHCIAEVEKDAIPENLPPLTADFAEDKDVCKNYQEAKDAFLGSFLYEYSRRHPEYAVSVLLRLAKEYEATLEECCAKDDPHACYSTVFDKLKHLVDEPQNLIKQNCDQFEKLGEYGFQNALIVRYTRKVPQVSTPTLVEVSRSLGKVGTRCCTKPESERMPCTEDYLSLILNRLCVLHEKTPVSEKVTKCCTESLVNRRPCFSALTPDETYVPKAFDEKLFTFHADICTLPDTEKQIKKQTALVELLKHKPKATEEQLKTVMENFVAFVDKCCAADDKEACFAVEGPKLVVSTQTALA

## S=C=Nc1ccc(-c2c3nc(c(-c4cccnc4)c4ccc([nH]4)c(-c4cccnc4)c4nc(c(-c5cccnc5)c5ccc2[nH]5)C=C4)C=C3)cc1
other
  melting point: > 350 °C (dec.)

## S=C=Nc1ccc(-c2c3nc(c(-c4ccncc4)c4ccc([nH]4)c(-c4ccncc4)c4nc(c(-c5ccncc5)c5ccc2[nH]5)C=C4)C=C3)cc1
other
  melting point: > 350 °C (dec.)

## Oc1cc(O)cc(-c2c3nc(c(-c4cc(O)cc(O)c4)c4ccc([nH]4)c(-c4cc(O)cc(O)c4)c4nc(c(-c5ccc(N=C=S)cc5)c5ccc2[nH]5)C=C4)C=C3)c1
other
  melting point: > 350 °C (dec.)

## COc1ccc(-c2c3nc(cc4ccc([nH]4)c(-c4ccc(NC(C)=O)cc4)c4nc(cc5ccc2[nH]5)C=C4)C(O)C3O)cc1 (stereo not shown) [Example 10, 17,18-Dihydroxy-5-(4-acetamidophenyl)-15-(4-methoxyphenyl)chlorin]
BSA
  unreactive fluorophore molecules non-covalently bound to each protein molecule: 1
avidin
  unreactive fluorophore molecules non-covalently bound to each protein molecule: 1

## 5-(4-Isothiocyanatophenyl)-10,15,20-tris(4-N-methylpyridiniumyl) porphyrin Trichloride [Example 6]
[1]
  solubility in water: water soluble

## COc1ccc(-c2c3nc(cc4ccc([nH]4)c(-c4ccc(NC(C)=O)cc4)c4nc(cc5ccc2[nH]5)C(O)C4O)C(O)C3O)cc1 (stereo not shown) [Example 12, 7,8,17,18-tetrahydroxy-5-(4-acetamidophenyl)-15-(4-methoxyphenyl)bacteriochlorin]
BSA
  unreactive fluorophore molecules non-covalently bound to each protein molecule: less than 1
avidin
  unreactive fluorophore molecules non-covalently bound to each protein molecule: less than 1

## Nc1ccc(-c2c3nc(c(-c4cc(O)cc(O)c4)c4ccc([nH]4)c(-c4cc(O)cc(O)c4)c4nc(c(-c5cc(O)cc(O)c5)c5ccc2[nH]5)C=C4)C=C3)cc1 [OH6-NH2, 5-(4-Aminophenyl)-10,15,20-tris(3,5-dihydroxyphenyl)porphyrin]
other
  melting point: > 350 °C (dec.)

B1: OH6/17.1A: OH6 conjugated with 17.1A monoclonal antibody, MRs of 2.5, 5, 10 and 20 (conjugate, chains of the INN, looked up)
VH: QVQLQQSGAELVRPGTSVKVSCKASGYAFTNYLIEWVKQRPGQGLEWIGVINPGSGGTNYNEKFKGKATLTADKSSSTAYMQLSSLTSDDSAVYFCARDGPWFAYWGQGTLVTVSA
VL: NIVMTQSPKSMSMSVGERVTLTCKASENVVTYVSWYQQKPEQSPKLLIYGASNRYTGVPDRFTGSGSATDFTLTISSVQAEDLADYHCGQGYSYPYTFGGGTKLEIK
modifications: conjugated to OH6
Colo 320 cells [2]
  binding to Colo 320 cells: has bound to the cells
Colo 320 cells [3]
  photocytotoxicity following irradiation: significant increase in cytotoxicity on irradiation

B2: PYR/17.1A: PYR conjugated with 17.1A monoclonal antibody (conjugate, chains of the INN, looked up)
VH: B1 VH
VL: B1 VL
modifications: conjugated to PYR
notes: PYR conjugated with 17.1A monoclonal antibody
Colo 320 cells [2]
  binding to Colo 320 cells: has bound to the cells
Colo 320 cells [3]
  photocytotoxicity following irradiation: significant increase in cytotoxicity on irradiation
